Patent publication US6054484A, “Transparent aqueous solution of diclofenac sodium and medicinal compositions with the use of the same” (Tsumura & Co., priority 1996, dated 2000)

Columns and labels:
[1] = Solubility of drug substance in water, oil ingredients and fatty acid diethanolamide; format: physicochemical
[2] = cited from earlier work

Row | Compound | dissolution in coconut fatty acid diethanolamide ([1]; coconut fatty acid diethanolamide alone) | solubility in oil ingredients ([1]; in oil ingredients) | dissolution in liquid mixture of coconut fatty acid diethanolamide with water ([1]; liquid mixture with water) | solubility in water [2] | solubility in water (in words) [2]
1 | O=C(O)Cc1ccccc1Nc1c(Cl)cccc1Cl [diclofenac sodium] | does not dissolve | low solubility | at a high concentration and stably | about 1.5 wt. % | –
2 | COc1ccc2c(c1)c(CC(=O)O)c(C)n2C(=O)c1ccc(Cl)cc1 [indomethacin] | – | – | – | – | insoluble in water
